Earlier results, collected in paper PMC12084609, “Structural insights into small-molecule agonist recognition and activation of complement receptor C3aR” (The EMBO Journal, 2025).

System: C3aR
Design: method as in Mathieu et al, 2005; Rodriguez et al, 2024
Conditions: blockade of calcium influx attributed to β-arrestin mediated internalization; ref Mathieu et al, 2005; Rodriguez et al, 2024; cited from earlier work

NC(N)=NCCC[C@H](NC(=O)COCC(c1ccccc1)c1ccccc1)C(=O)O [SB290157]
activity at C3aR: potent agonist
